{"source": "patent US12252524B2", "about": "“GIP/GLP1 co-agonist compounds” (Eli Lilly and Company, priority 2018, dated 2025)", "key": {"[1]": {"biological_target": "T1, gastric inhibitory peptide receptor (GIPR) (Homo sapiens, UniProt P48546)", "T1 sequence (P48546 22-466)": "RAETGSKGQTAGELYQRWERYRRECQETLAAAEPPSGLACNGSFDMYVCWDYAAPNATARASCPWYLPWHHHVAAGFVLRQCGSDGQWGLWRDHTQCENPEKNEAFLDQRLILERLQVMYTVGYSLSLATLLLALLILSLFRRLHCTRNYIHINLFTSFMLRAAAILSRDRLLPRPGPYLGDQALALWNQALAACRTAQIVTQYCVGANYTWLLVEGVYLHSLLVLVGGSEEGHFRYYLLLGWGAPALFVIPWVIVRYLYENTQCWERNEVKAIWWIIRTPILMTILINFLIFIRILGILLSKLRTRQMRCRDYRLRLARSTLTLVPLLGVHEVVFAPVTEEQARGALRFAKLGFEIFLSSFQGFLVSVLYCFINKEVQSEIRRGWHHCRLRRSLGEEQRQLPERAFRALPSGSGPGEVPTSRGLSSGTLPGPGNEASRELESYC", "test": "cAMP pharmacological functional assay in presence of casein, hGIPR", "type": "cell-based", "conditions": "HEK293 cells expressing hGIPR, 0.1% Casein, geometric mean; read-out: hGIPR cAMP Rel EC50 nM (SEM, n)"}, "human Gcg receptor": {"biological_target": "T2, human Gcg receptor (Homo sapiens, UniProt P47871)", "T2 construct": "expressed in transfected cells; crude membranes", "T2 sequence (P47871 26-477)": "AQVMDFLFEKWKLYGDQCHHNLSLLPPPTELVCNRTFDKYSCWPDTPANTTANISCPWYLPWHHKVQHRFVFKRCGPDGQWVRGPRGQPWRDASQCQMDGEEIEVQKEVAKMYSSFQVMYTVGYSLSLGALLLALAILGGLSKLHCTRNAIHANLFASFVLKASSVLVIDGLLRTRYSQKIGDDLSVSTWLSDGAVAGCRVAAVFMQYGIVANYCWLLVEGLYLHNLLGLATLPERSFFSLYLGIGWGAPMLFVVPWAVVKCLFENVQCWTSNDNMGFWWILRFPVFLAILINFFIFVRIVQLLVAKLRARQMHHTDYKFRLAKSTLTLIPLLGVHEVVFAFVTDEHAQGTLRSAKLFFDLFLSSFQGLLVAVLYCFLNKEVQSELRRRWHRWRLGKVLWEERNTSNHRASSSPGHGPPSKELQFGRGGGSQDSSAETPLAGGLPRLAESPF", "test": "[125I]-Glucagon binding (SPA), human Gcg receptor", "conditions": "read-out: hGLcgR Ki, nM (SEM, n)", "summary_of_the_method": "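Crude membranes from cells expressing the receptor, prepared by hypotonic lysis in 50 mM Tris HCl pH 7.5 with protease inhibitors, homogenization and differential centrifugation, were used in a WGA-bead SPA. Binding buffer: 25 mM HEPES pH 7.4, 2.5 mM CaCl2, 1 mM MgCl2, bacitracin, Tween-20.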"}, "[2]": {"biological_target": "human GLP-1 receptor (GLP-1R) (Homo sapiens, UniProt P43220)", "sequence (P43220 24-463)": "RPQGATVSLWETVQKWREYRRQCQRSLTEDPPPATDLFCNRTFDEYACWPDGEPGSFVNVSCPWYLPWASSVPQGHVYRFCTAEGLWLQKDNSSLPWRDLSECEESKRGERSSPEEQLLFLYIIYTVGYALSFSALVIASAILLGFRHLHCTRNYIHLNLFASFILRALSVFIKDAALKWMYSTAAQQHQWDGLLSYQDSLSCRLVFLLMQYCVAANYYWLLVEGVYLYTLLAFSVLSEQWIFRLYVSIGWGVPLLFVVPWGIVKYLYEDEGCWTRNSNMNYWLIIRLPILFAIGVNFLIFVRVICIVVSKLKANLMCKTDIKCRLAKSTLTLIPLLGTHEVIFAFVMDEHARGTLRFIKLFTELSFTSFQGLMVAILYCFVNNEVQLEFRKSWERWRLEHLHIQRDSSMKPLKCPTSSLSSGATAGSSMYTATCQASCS", "test": "cAMP pharmacological functional assay in presence of casein, hGLP-1R", "type": "cell-based", "conditions": "HEK293 cells expressing hGLP-1R, 0.1% Casein, geometric mean; read-out: hGLP1R cAMP Rel EC50 nM (SEM, n)"}, "human GIP receptor": {"biological_target": "T3, human GIP receptor (Homo sapiens, UniProt P48546)", "T3 construct": "expressed in transfected cells; crude membranes", "T3 sequence (P48546 22-466)": "T1 sequence (P48546 22-466)", "test": "[125I]-GIP binding (SPA), human GIP receptor", "conditions": "read-out: hGIPR Ki, nM (SEM, n)"}, "human GLP-1R": {"biological_target": "human GLP-1R (Homo sapiens, UniProt P43220)", "sequence (P43220 24-463)": "as above", "test": "[125I]-GLP-1 binding (SPA), human GLP-1 receptor", "design": "expressed in transfected cells; crude membranes", "conditions": "read-out: hGLP1R Ki, (nM) (SEM, n)", "summary_of_the_method": "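Ki values are geometric means with SEM over independent replicates on different days, derived from IC50s fitted by four-parameter nonlinear regression. The assay used crude cell membranes in HEPES buffer, pH 7.4, containing CaCl2, MgCl2, bacitracin and TWEEN-20.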"}}}
{"smiles": "CC[C@H](C)[C@H](NC(=O)[C@H](CC(C)C)NC(=O)[C@H](Cc1ccc(O)cc1)NC(=O)[C@H](CCC(=O)O)NC(=O)[C@@H](NC(=O)[C@H](Cc1ccccc1)NC(=O)[C@H](C)NC(=O)C(C)(C)NC(=O)[C@H](CCC(N)=O)NC(=O)[C@H](C)NC(=O)[C@H](CCCCNC(=O)COCCOCCNC(=O)COCCOCCNC(=O)CC[C@H](NC(=O)CCCCCCCCCCCCCCCCCCC(=O)O)C(=O)O)NC(=O)[C@H](CCCCN)NC(=O)[C@H](CC(=O)O)NC(=O)[C@H](CC(C)C)NC(=O)[C@H](CC(C)C)NC(=O)[C@@H](NC(=O)[C@H](CO)NC(=O)[C@H](Cc1ccc(O)cc1)NC(=O)[C@H](CC(=O)O)NC(=O)[C@H](CO)NC(=O)[C@@H](NC(=O)[C@H](Cc1ccccc1)NC(=O)[C@@H](NC(=O)CNC(=O)[C@H](CCC(=O)O)NC(=O)[C@H](C)NC(=O)[C@@H](Cc1ccc(O)cc1)NC(C)=O)[C@@H](C)O)[C@@H](C)O)[C@@H](C)CC)[C@@H](C)CC)C(=O)N[C@@H](CCC(=O)O)C(=O)NCC(=O)NCC(=O)N1CCC[C@H]1C(=O)N[C@@H](CO)C(=O)N[C@@H](CO)C(=O)NCC(=O)N[C@@H](C)C(=O)N1CCC[C@H]1C(=O)N1CCC[C@H]1C(=O)N1CCC[C@H]1C(=O)N[C@@H](CO)C(N)=O", "note": "[Example 79]", "values": [{"measurement": "EC50", "setting": "[1]", "value": 0.0732, "unit": "nM"}, {"measurement": "Ki", "setting": "human Gcg receptor", "value": 429, "unit": "nM"}, {"measurement": "EC50", "setting": "[2]", "value": 2.02, "unit": "nM"}, {"measurement": "Ki", "setting": "human GIP receptor", "value": 0.0313, "unit": "nM"}, {"measurement": "Ki", "setting": "human GLP-1R", "value": 2.69, "unit": "nM"}]}
{"smiles": "CC[C@H](C)[C@H](NC(=O)[C@H](CC(C)C)NC(=O)[C@H](Cc1ccc(O)cc1)NC(=O)[C@H](CCC(=O)O)NC(=O)[C@@H](NC(=O)[C@H](Cc1ccccc1)NC(=O)[C@H](C)NC(=O)C(C)(C)NC(=O)[C@H](CCC(N)=O)NC(=O)[C@H](C)NC(=O)[C@H](CCCCNC(=O)COCCOCCNC(=O)COCCOCCNC(=O)CC[C@H](NC(=O)CCCCCCCCCCCCCCCCCCC(=O)O)C(=O)O)NC(=O)[C@H](CCCCN)NC(=O)[C@H](CC(=O)O)NC(=O)[C@H](CC(C)C)NC(=O)[C@H](CC(C)C)NC(=O)[C@@H](NC(=O)[C@@H](CO)NC(=O)[C@H](Cc1ccc(O)cc1)NC(=O)[C@H](CC(=O)O)NC(=O)[C@H](CO)NC(=O)[C@@H](NC(=O)[C@H](Cc1ccccc1)NC(=O)[C@@H](NC(=O)CNC(=O)[C@H](CCC(=O)O)NC(=O)C(C)(C)NC(=O)[C@@H](N)Cc1ccc(O)cc1)[C@@H](C)O)[C@@H](C)O)[C@@H](C)CC)[C@@H](C)CC)C(=O)N[C@@H](CCC(=O)O)C(=O)NCC(=O)NCC(=O)N1CCC[C@H]1C(=O)N[C@@H](CO)C(=O)N[C@@H](CO)C(=O)NCC(=O)N[C@@H](C)C(=O)N1CCC[C@H]1C(=O)N1CCC[C@H]1C(=O)N1CCC[C@H]1C(=O)N[C@@H](CO)C(N)=O", "note": "[Example 81]", "values": [{"measurement": "EC50", "setting": "[1]", "value": 0.428, "unit": "nM"}, {"measurement": "Ki", "setting": "human Gcg receptor", "value": 344, "unit": "nM"}, {"measurement": "EC50", "setting": "[2]", "value": 1.29, "unit": "nM"}, {"measurement": "Ki", "setting": "human GIP receptor", "value": 0.198, "unit": "nM"}, {"measurement": "Ki", "setting": "human GLP-1R", "value": 2.88, "unit": "nM"}]}
{"smiles": "CC[C@@H](C)[C@@H](NC(=O)[C@H](CO)NC(=O)[C@H](Cc1ccc(O)cc1)NC(=O)[C@H](CC(=O)O)NC(=O)[C@H](CO)NC(=O)[C@@H](NC(=O)[C@H](Cc1ccccc1)NC(=O)[C@@H](NC(=O)CNC(=O)[C@H](CCC(=O)O)NC(=O)C(C)(C)NC(=O)[C@@H](N)Cc1ccc(O)cc1)[C@@H](C)O)[C@@H](C)O)C(=O)N[C@@H](CC(C)C)C(=O)N[C@@H](CC(C)C)C(=O)N[C@@H](CC(=O)O)C(=O)N[C@@H](CCCCN)C(=O)N[C@@H](CCCCNC(=O)COCCOCCNC(=O)COCCOCCNC(=O)CC[C@H](NC(=O)CCCCCCCCCCCCCCCCCCC(=O)O)C(=O)O)C(=O)N[C@@H](C)C(=O)N[C@@H](CCC(N)=O)C(=O)NC(C)(C)C(=O)N[C@@H](C)C(=O)N[C@@H](Cc1ccccc1)C(=O)N[C@H](C(=O)N[C@@H](CCC(=O)O)C(=O)N[C@@H](Cc1ccc(O)cc1)C(=O)N[C@@H](CC(C)C)C(=O)N[C@H](C(=O)N[C@@H](CCC(=O)O)C(=O)NCC(=O)NCC(=O)N1CCC[C@H]1C(=O)N[C@@H](CO)C(=O)N[C@@H](CO)C(=O)NCC(=O)N[C@@H](C)C(=O)N1CCC[C@H]1C(=O)N1CCC[C@H]1C(=O)N1CCC[C@H]1C(=O)N[C@@H](CO)C(N)=O)[C@@H](C)CC)[C@@H](C)CC", "note": "[Example 82]", "values": [{"measurement": "EC50", "setting": "[1]", "value": 24.3, "unit": "nM"}, {"measurement": "Ki", "setting": "human Gcg receptor", "value": "> 1060", "unit": "nM"}, {"measurement": "EC50", "setting": "[2]", "value": 26.1, "unit": "nM"}, {"measurement": "Ki", "setting": "human GIP receptor", "value": 14.9, "unit": "nM"}, {"measurement": "Ki", "setting": "human GLP-1R", "value": 6.82, "unit": "nM"}]}
{"smiles": "CC[C@H](C)[C@H](NC(=O)[C@H](Cc1ccccc1)NC(=O)[C@H](C)NC(=O)C(C)(C)NC(=O)[C@H](CCC(N)=O)NC(=O)[C@H](C)NC(=O)[C@H](CCCCNC(=O)COCCOCCNC(=O)COCCOCCNC(=O)CC[C@H](NC(=O)CCCCCCCCCCCCCCCCCCC(=O)O)C(=O)O)NC(=O)[C@H](CCCCN)NC(=O)[C@H](CC(=O)O)NC(=O)[C@H](CC(C)C)NC(=O)[C@H](CC(C)C)NC(=O)[C@@H](NC(=O)[C@H](CO)NC(=O)[C@H](Cc1ccc(O)cc1)NC(=O)[C@H](CC(=O)O)NC(=O)[C@H](CO)NC(=O)[C@@H](NC(=O)[C@H](Cc1ccccc1)NC(=O)[C@@H](NC(=O)CNC(=O)[C@H](CCC(=O)O)NC(=O)C(C)(C)NC(=O)[C@@H](N)Cc1ccc(O)cc1)[C@@H](C)O)[C@@H](C)O)[C@@H](C)CC)C(=O)N[C@@H](CCC(=O)O)C(=O)N[C@@H](Cc1ccc(O)cc1)C(=O)N[C@@H](CC(C)C)C(=O)N[C@H](C(=O)N[C@H](CCC(=O)O)C(=O)NCC(=O)NCC(=O)N1CCC[C@H]1C(=O)N[C@@H](CO)C(=O)N[C@@H](CO)C(=O)NCC(=O)N[C@@H](C)C(=O)N1CCC[C@H]1C(=O)N1CCC[C@H]1C(=O)N1CCC[C@H]1C(=O)N[C@@H](CO)C(N)=O)[C@@H](C)CC", "note": "[Example 83]", "values": [{"measurement": "EC50", "setting": "[1]", "value": 0.182, "unit": "nM"}, {"measurement": "Ki", "setting": "human Gcg receptor", "value": 320, "unit": "nM"}, {"measurement": "EC50", "setting": "[2]", "value": 0.387, "unit": "nM"}, {"measurement": "Ki", "setting": "human GIP receptor", "value": 0.142, "unit": "nM"}, {"measurement": "Ki", "setting": "human GLP-1R", "value": 7.1, "unit": "nM"}]}
{"smiles": "CC[C@H](C)[C@H](NC(=O)[C@H](CC(C)C)NC(=O)[C@H](Cc1ccc(O)cc1)NC(=O)[C@@H](CCC(=O)O)NC(=O)[C@@H](NC(=O)[C@H](Cc1ccccc1)NC(=O)[C@H](C)NC(=O)C(C)(C)NC(=O)[C@H](CCC(N)=O)NC(=O)[C@H](C)NC(=O)[C@H](CCCCNC(=O)COCCOCCNC(=O)COCCOCCNC(=O)CC[C@H](NC(=O)CCCCCCCCCCCCCCCCCCC(=O)O)C(=O)O)NC(=O)[C@H](CCCCN)NC(=O)[C@H](CC(=O)O)NC(=O)[C@H](CC(C)C)NC(=O)[C@H](CC(C)C)NC(=O)[C@@H](NC(=O)[C@H](CO)NC(=O)[C@H](Cc1ccc(O)cc1)NC(=O)[C@H](CC(=O)O)NC(=O)[C@H](CO)NC(=O)[C@@H](NC(=O)[C@H](Cc1ccccc1)NC(=O)[C@@H](NC(=O)CNC(=O)[C@H](CCC(=O)O)NC(=O)C(C)(C)NC(=O)[C@@H](N)Cc1ccc(O)cc1)[C@@H](C)O)[C@@H](C)O)[C@@H](C)CC)[C@@H](C)CC)C(=O)N[C@@H](CCC(=O)O)C(=O)NCC(=O)NCC(=O)N1CCC[C@H]1C(=O)N[C@@H](CO)C(=O)N[C@@H](CO)C(=O)NCC(=O)N[C@@H](C)C(=O)N1CCC[C@H]1C(=O)N1CCC[C@H]1C(=O)N1CCC[C@H]1C(=O)N[C@@H](CO)C(N)=O", "note": "[Example 84]", "values": [{"measurement": "EC50", "setting": "[1]", "value": 0.0915, "unit": "nM"}, {"measurement": "Ki", "setting": "human Gcg receptor", "value": "> 1100", "unit": "nM"}, {"measurement": "EC50", "setting": "[2]", "value": 0.374, "unit": "nM"}, {"measurement": "Ki", "setting": "human GIP receptor", "value": 0.143, "unit": "nM"}, {"measurement": "Ki", "setting": "human GLP-1R", "value": 10.2, "unit": "nM"}]}
